# Measurements taken from US11739100B2, “2,3-dihydro-1h-imidazo{1,2-a}pyrimidin-5-one and this 1,2,3,4-tetrahydropyrimido{1,2-a}pyrimidin-6-one derivatives comprising a substituted morpholine, preparation thereof and pharmaceutical use thereof” (SANOFI, priority 2012, dated 2023).
# Molecular target: T1, recombinant Vps34 (Homo sapiens, UniProt Q8NEB9)
# T1 construct: purchased Invitrogen PV5126
# Assay: Phosphorylation of phosphatidylinositol (PI) by Vps34 in vitro, ADP detected by TR-FRET (HTRF Transcreener ADP)
# Format: biochemical
# Conditions: 10 μM ATP, 55 μg/ml PI, approximately 3 nM Vps34, 1 hour at ambient temperature; absolute IC50, mean of two independent experiments; read-out: IC50 activity range
# T1 sequence (Q8NEB9 whole entry): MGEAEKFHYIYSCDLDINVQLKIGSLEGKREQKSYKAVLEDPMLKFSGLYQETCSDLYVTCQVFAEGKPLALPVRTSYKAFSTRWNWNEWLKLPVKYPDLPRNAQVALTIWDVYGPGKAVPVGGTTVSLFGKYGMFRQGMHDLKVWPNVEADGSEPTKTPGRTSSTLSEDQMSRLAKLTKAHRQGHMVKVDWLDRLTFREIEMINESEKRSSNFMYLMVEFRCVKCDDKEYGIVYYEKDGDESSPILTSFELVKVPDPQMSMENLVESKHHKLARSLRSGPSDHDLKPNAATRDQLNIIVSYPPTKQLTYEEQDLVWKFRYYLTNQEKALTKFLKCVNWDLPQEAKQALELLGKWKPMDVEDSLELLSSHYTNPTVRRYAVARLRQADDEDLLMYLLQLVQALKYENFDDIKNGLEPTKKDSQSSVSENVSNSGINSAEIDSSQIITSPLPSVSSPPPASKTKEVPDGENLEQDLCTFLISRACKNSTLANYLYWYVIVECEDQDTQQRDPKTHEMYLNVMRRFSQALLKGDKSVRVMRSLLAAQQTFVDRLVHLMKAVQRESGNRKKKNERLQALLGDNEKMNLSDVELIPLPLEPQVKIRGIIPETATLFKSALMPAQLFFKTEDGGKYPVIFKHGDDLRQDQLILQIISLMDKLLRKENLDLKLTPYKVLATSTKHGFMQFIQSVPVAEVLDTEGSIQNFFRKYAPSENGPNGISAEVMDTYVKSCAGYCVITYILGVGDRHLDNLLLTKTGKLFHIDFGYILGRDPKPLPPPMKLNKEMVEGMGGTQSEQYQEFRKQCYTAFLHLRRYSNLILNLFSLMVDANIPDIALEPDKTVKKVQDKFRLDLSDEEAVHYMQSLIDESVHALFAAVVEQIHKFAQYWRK
row,SMILES,IC50 [nM]
1,"O=C(CN1c2nc(N3CC4CCC(C3)O4)cc(=O)n2CC[C@H]1C(F)(F)F)c1cccnc1 [Example 170, (S)-2-(8-Oxa-3-aza-bicyclo[3.2.1]oct-3-yl)-9-(2-oxo-2-pyridin-3-ylethyl)-8-trifluoromethyl-6,7,8,9-tetrahydro-pyrimido[1,2-a]-pyrimidin-4-one]",10 to 100
2,"C[C@@H]1COCCN1c1nc2n(c(=O)c1F)[C@@H](C(F)(F)F)CCN2Cc1nc(C2CC2)no1 [Example 147, (R)-9-(3-Cyclopropyl-[1,2,4]oxadiazol-5-yl-methyl)-3-fluoro-2-((R)-3-methyl-morpholin-4-yl)-6-trifluoromethyl-6,7,8,9-tetrahydro-pyrimido[1,2-a]-pyrimidin-4-one]",< 10
3,"C[C@@H]1COCCN1c1nc2n(c(=O)c1F)[C@@H](C(F)(F)F)CCN2CC(=O)C1CC1 [Example 120, (R)-9-(2-Cyclopropyl-2-oxoethyl)-3-fluoro-2-((R)-3-methyl-morpholin-4-yl)-6-trifluoromethyl-6,7,8,9-tetrahydro-pyrimido[1,2-a]-pyrimidin-4-one]",< 10
4,"CC(C)CCC(=O)CN1c2nc(N3CCOC[C@H]3C)c(F)c(=O)n2CC[C@H]1C(F)(F)F [Example 279, (S)-3-Fluoro-2-((R)-3-methylmorpholin-4-yl)-9-(5-methyl-2-oxo-hexyl)-8-trifluoromethyl-6,7,8,9-tetrahydro-pyrimido[1,2-a]-pyrimidin-4-one]",< 10
5,"C[C@@H]1COCCN1c1nc2n(c(=O)c1F)CC[C@@H](C(F)(F)F)N2CC(=O)N1CCCCO1 [Example 317, (S)-3-Fluoro-2-((R)-3-methylmorpholin-4-yl)-9-(2-[1,2]oxazinan-2-yl-2-oxoethyl)-8-trifluoromethyl-6,7,8,9-tetrahydropyrimido-[1,2-a]pyrimidin-4-one]",< 10
6,"Cc1nnc(CN2c3nc(N4CCOC[C@H]4C)cc(=O)n3CC[C@H]2C(F)(F)F)s1 [Example 123, (S)-2-((R)-3-Methyl-morpholin-4-yl)-9-(5-methyl-[1,3,4]thiadiazol-2-yl-methyl)-8-trifluoromethyl-6,7,8,9-tetrahydro-pyrimido[1,2-a]-pyrimidin-4-one]",10 to 100
7,"C[C@@H]1COCCN1c1nc2n(c(=O)c1F)C[C@@](C)(C(F)(F)F)N2CC(=O)c1cccnc1 [Example 189, (S)-6-Fluoro-2-methyl-7-((R)-3-methyl-morpholin-4-yl)-1-(2-oxo-2-pyridin-3-yl-ethyl)-2-trifluoromethyl-2,3-dihydro-1H-imidazo[1,2-a]-pyrimidin-5-one]",< 10
8,"C[C@@H]1COCCN1c1cc(=O)n2c(n1)N(Cc1cnco1)[C@H](C(F)(F)F)CC2 [Example 91, (S)-2-((R)-3-Methyl-morpholin-4-yl)-9-oxazol-5-ylmethyl-8-trifluoromethyl-6,7,8,9-tetrahydro-pyrimido[1,2-a]-pyrimidin-4-one]",< 10
9,"C[C@@H]1COCCN1c1cc(=O)n2c(n1)N(Cc1ccon1)[C@H](C(F)(F)F)CC2 [Example 33, (S)-9-Isoxazol-3-yl-methyl-2-((R)-3-methylmorpholin-4-yl)-8-trifluoromethyl-6,7,8,9-tetrahydro-pyrimido[1,2-a]-pyrimidin-4-one]",< 10
10,"Cc1ccc(S(=O)(=O)N2c3nc(N4CCOC[C@H]4C)cc(=O)n3CC[C@H]2C(F)(F)F)cc1 [Example 104, (S)-2-((R)-3-Methyl-morpholin-4-yl)-9-(toluene-4-sulfonyl)-8-trifluoromethyl-6,7,8,9-tetrahydro-pyrimido[1,2-a]-pyrimidin-4-one]",10 to 100
11,"C[C@@H]1COCCN1c1nc2n(c(=O)c1F)CCC(C)(C)N2Cc1ccon1 [Example 73, 3-Fluoro-9-isoxazol-3-ylmethyl-8,8-dimethyl-2-((R)-3-methyl-morpholin-4-yl)-6,7,8,9-tetrahydro-pyrimido[1,2-a]-pyrimidin-4-one]",10 to 100
12,"CC(C)OCCN1c2nc(N3CCOC[C@H]3C)cc(=O)n2CC[C@H]1C(F)(F)F [Example 300, (S)-9-(2-Isopropoxy-ethyl)-2-((R)-3-methyl-morpholin-4-yl)-8-trifluoromethyl-6,7,8,9-tetrahydro-pyrimido[1,2-a]-pyrimidin-4-one]",< 10
13,"C[C@@H]1COCCN1c1cc(=O)n2c(n1)N(Cc1nnc(C3CC3)o1)[C@H](C(F)(F)F)CC2 [Example 142, (S)-9-(5-Cyclopropyl-[1,3,4]oxadiazol-2-yl-methyl)-2-((R)-3-methylmorpholin-4-yl)-8-trifluoromethyl-6,7,8,9-tetrahydro-pyrimido[1,2-a]-pyrimidin-4-one]",< 10
14,"COc1cc(N2CC[C@H](C(F)(F)F)n3c2nc(N2CCOC[C@H]2C)cc3=O)ccn1 [Example 109, (R)-9-(2-Methoxy-pyridin-4-yl)-2-((R)-3-methylmorpholin-4-yl)-6-trifluoromethyl-6,7,8,9-tetrahydro-pyrimido[1,2-a]-pyrimidin-4-one]",< 10
15,"C[C@@H]1COCCN1c1cc(=O)n2c(n1)N(Cc1ccnn1C(F)F)[C@H](C(F)(F)F)CC2 [Example 37, (S)-9-(2-Difluoromethyl-2H-pyrazol-3-ylmethyl)-2-((R)-3-methyl-morpholin-4-yl)-8-trifluoromethyl-6,7,8,9-tetrahydro-pyrimido[1,2-a]-pyrimidin-4-one]",< 10
16,"C[C@@H]1COCCN1c1cc(=O)n2c(n1)N(c1ccc(C3CC3)nc1)CC[C@@H]2C(F)(F)F [Example 107, (R)-9-(6-Cyclopropyl-pyridin-3-yl)-2-((R)-3-methylmorpholin-4-yl)-6-trifluoromethyl-6,7,8,9-tetrahydro-pyrimido[1,2-a]-pyrimidin-4-one]",< 10
17,"CCC(=O)CN1CC[C@H](C(F)(F)F)n2c1nc(N1CCOC[C@H]1C)cc2=O [Example 26, (R)-2-((R)-3-Methyl-morpholin-4-yl)-9-(2-oxobutyl)-6-trifluoromethyl-6,7,8,9-tetrahydro-pyrimido[1,2-a]-pyrimidin-4-one]",< 10
18,"CC(C)C(F)CN1c2nc(N3CCOC[C@H]3C)cc(=O)n2CC[C@H]1C(F)(F)F (single isomer, unassigned) [Example 323]",< 10
19,"C[C@@H]1COCCN1c1cc(=O)n2c(n1)N(CC(=O)c1ccnc(Cl)c1)[C@H](C(F)(F)F)CC2 [Example 10, (S)-9-[2-(2-Chloro-pyridin-4-yl)-2-oxo-ethyl]-2-((R)-3-methyl-morpholin-4-yl)-8-trifluoromethyl-6,7,8,9-tetrahydro-pyrimido[1,2-a]-pyrimidin-4-one]",< 10
20,"C[C@@H]1COCCN1c1cc(=O)n2c(n1)N(Cc1nc(C(F)(F)F)no1)CC[C@@H]2C(F)(F)F [Example 144, (R)-2-((R)-3-Methyl-morpholin-4-yl)-6-trifluoromethyl-9-(3-trifluoromethyl-[1,2,4]oxadiazol-5-yl-methyl)-6,7,8,9-tetrahydro-pyrimido[1,2-a]-pyrimidin-4-one]",< 10
21,"O=c1cc(N2CC3CCC(C2)O3)nc2n1CC[C@@H](C(F)(F)F)N2Cc1ccc(Cl)s1 [Example 162, (S)-9-(5-Chloro-thiophen-2-ylmethyl)-2-(8-oxa-3-aza-bicyclo[3.2.1]oct-3-yl)-8-trifluoromethyl-6,7,8,9-tetrahydro-pyrimido[1,2-a]-pyrimidin-4-one]",10 to 100
22,"CC(C)C(=O)CN1c2nc(N3CC4CCC(C3)O4)c(F)c(=O)n2CC[C@H]1C(F)(F)F [Example 274, (S)-3-Fluoro-9-(3-methyl-2-oxobutyl)-2-(8-oxa-3-aza-bicyclo[3.2.1]oct-3-yl)-8-trifluoromethyl-6,7,8,9-tetrahydro-pyrimido[1,2-a]-pyrimidin-4-one]",10 to 100
23,"C[C@@H]1COCCN1c1cc(=O)n2c(n1)N(CC(N)=O)[C@H](C(F)(F)F)CC2 [Example 263, 2-[(S)-8-((R)-3-Methyl-morpholin-4-yl)-6-oxo-2-trifluoromethyl-3,4-dihydro-2H,6H-pyrimido[1,2-a]-pyrimidin-1-yl]-acetamide]",> 100
24,"C[C@@H]1COCCN1c1cc(=O)n2c(n1)N(Cc1ccnc(F)c1)[C@H](C(F)(F)F)CC2 [Example 257, (S)-9-(2-Fluoropyridin-4-ylmethyl)-2-((R)-3-methylmorpholin-4-yl)-8-trifluoromethyl-6,7,8,9-tetrahydro-pyrimido[1,2-a]-pyrimidin-4-one]",< 10
25,"C[C@@H]1COCCN1c1nc2n(c(=O)c1F)CC[C@@H](C(F)(F)F)N2CC(=O)c1nccs1 [Example 68, (S)-3-Fluoro-2-((R)-3-methylmorpholin-4-yl)-9-(2-oxo-2-thiazol-2-yl-ethyl)-8-trifluoromethyl-6,7,8,9-tetrahydro-pyrimido[1,2-a]-pyrimidin-4-one]",< 10
26,"Cc1nocc1CN1CC[C@H](C(F)(F)F)n2c1nc(N1CCOC[C@H]1C)c(F)c2=O [Example 146, (R)-3-Fluoro-9-(3-methylisoxazol-4-yl-methyl)-2-((R)-3-methylmorpholin-4-yl)-6-trifluoromethyl-6,7,8,9-tetrahydro-pyrimido[1,2-a]-pyrimidin-4-one]",< 10
27,"C[C@@H]1COCCN1c1cc(=O)n2c(n1)N(CC(=O)c1nccs1)[C@H](C(F)(F)F)CC2 [Example 242, (S)-2-((R)-3-Methyl-morpholin-4-yl)-9-(2-oxo-2-thiazol-2-yl-ethyl)-8-trifluoromethyl-6,7,8,9-tetrahydro-pyrimido[1,2-a]-pyrimidin-4-one]",< 10
28,"C[C@@H]1COCCN1c1cc(=O)n2c(n1)N(CC(=O)c1cccc(F)n1)[C@H](C(F)(F)F)CC2 [Example 63, (S)-9-[2-(6-Fluoro-pyridin-2-yl)-2-oxo-ethyl]-2-((R)-3-methyl-morpholin-4-yl)-8-trifluoromethyl-6,7,8,9-tetrahydro-pyrimido[1,2-a]-pyrimidin-4-one]",< 10
29,"CNC(=O)CN1c2nc(N3CCOC[C@H]3C)cc(=O)n2CC[C@H]1C(F)(F)F [Example 223, N-Methyl-2-[(S)-8-((R)-3-methylmorpholin-4-yl)-6-oxo-2-trifluoromethyl-3,4-dihydro-2H,6H-pyrimido[1,2-a]-pyrimidin-1-yl]-acetamide]",10 to 100
